Test results taken from patent US7291641B2, “Derivatives of heterocycles with 5 members, their preparation and their use as medicaments” (Societe de Conseils de Recherches et d'Applications …, priority 1999, dated 2007).

Row | Compound | melting point [°C]
1 | CC(C)(C)OC(=O)NCc1nc(-c2ccccc2)c[nH]1 [Example 103, tert-butyl (4-phenyl-1H-imidazol-2-yl)methylcarbamate] | 170 to 172
2 | CC(C)(C)OC(=O)NCc1nc(-c2ccccc2)cn1Cc1ccccc1 [Example 104, tert-butyl (1-benzyl-4-phenyl-1H-imidazol-2-yl)methylcarbamate] | 140 to 142
3 | c1ccc(OCCN[C@H](Cc2c[nH]c3ccccc23)c2nc(-c3ccccc3)c[nH]2)cc1 [Example 108, (1R)-2-(1H-indol-3-yl)-N-(2-phenoxyethyl)-1-(4-phenyl-1H-imidazol-2-yl)ethanamine] | 94 to 96
4 | c1ccc(CNCc2nc(-c3ccccc3)cn2Cc2ccccc2)cc1 [Example 110, N-benzyl(1-benzyl-4-phenyl-1H-imidazol-2-yl)methanamine] | 60 to 62
5 | c1ccc(CN[C@H](Cc2csc3ccccc23)c2nc(-c3ccccc3)c[nH]2)cc1 [Example 111, (1R)-2-(1-benzothien-3-yl)-N-benzyl-1-(4-phenyl-1H-imidazol-2-yl)ethanamine] | 152 to 154
6 | c1ccc(OCCN[C@H](Cc2c[nH]c3ccccc23)c2nc(-c3ccccc3)cs2)cc1 [Example 112, (1R)-2-(1H-indol-3-yl)-N-(2-phenoxyethyl)-1-(4-phenyl-1,3-thiazol-2-yl)ethanamine] | 124 to 126
7 | CC(C)(C)OC(=O)NC1(c2nc(-c3ccccc3)c[nH]2)CCCCC1 [Example 113, tert-butyl 1-(4-phenyl-1H-imidazol-2-yl)cyclohexylcarbamate] | 170 to 172
8 | c1ccc(CNC2(c3nc(-c4ccccc4)c[nH]3)CCCCC2)cc1 [Example 123, N-benzyl-1-(4-phenyl-1H-imidazol-2-yl)cyclohexanamine] | 114 to 116
9 | CC(C)C[C@@H](NC(=O)OC(C)(C)C)c1nc(-c2ccccc2)c[nH]1 [Example 124, tert-butyl (1R)-3-methyl-1-(4-phenyl-1H-imidazol-2-yl)butylcarbamate] | 88 to 90
10 | CC(C)C[C@@H](NCc1ccccc1)c1nc(-c2ccccc2)c[nH]1 [Example 125, (1R)-N-benzyl-3-methyl-1-(4-phenyl-1H-imidazol-2-yl)-1-butanamine] | 134 to 135
11 | CC(C)(C)OC(=O)NC(C)(C)c1nc(-c2ccccc2)c[nH]1 [Example 127, tert-butyl 1-methyl-1-(4-phenyl-1H-imidazol-2-yl)ethylcarbamate] | 130 to 132
12 | CC(C)(C)OC(=O)N[C@H](CCc1ccccc1)c1nc(-c2ccccc2)c[nH]1 [Example 129, tert-butyl (1R)-3-phenyl-1-(4-phenyl-1H-imidazol-2-yl)propylcarbamate] | 72 to 74
13 | CC(C)(C)OC(=O)N[C@H](CC1CCCCC1)c1nc(-c2ccccc2)c[nH]1 [Example 130, tert-butyl (1R)-2-cyclohexyl-1-(4-phenyl-1H-imidazol-2-yl)ethylcarbamate] | 184 to 185
14 | c1ccc(CN[C@H](CC2CCCCC2)c2nc(-c3ccccc3)c[nH]2)cc1 [Example 134, (1R)-N-benzyl-2-cyclohexyl-1-(4-phenyl-1H-imidazol-2-yl)ethanamine] | 52 to 54
15 | c1ccc(CC[C@@H](NCc2ccccc2)c2nc(-c3ccccc3)c[nH]2)cc1 [Example 135, (1R)-N-benzyl-3-phenyl-1-(4-phenyl-1H-imidazol-2-yl)-1-propanamine] | 142 to 144
16 | CC(C)(C)OC(=O)NCc1nc(-c2ccc(-c3ccccc3)cc2)c[nH]1 [Example 137, 4-(2-{[(tert-butoxycarbonyl)amino]methyl}-1H-imidazol-4-yl)-1,1′-biphenyl] | 100 to 102
17 | CS(=O)(=O)c1ccc(-c2c[nH]c([C@@H](NC3CCCCC3)C3CCCCC3)n2)cc1 [Example 138, N-{(S)-cyclohexyl[4-(4-methylsulphonylphenyl)-1H-imidazol-2-yl]methyl}cyclohexanamine] | 152 to 154
18 | CC(C)(NCc1ccccc1)c1nc(-c2ccccc2)c[nH]1 [Example 139, N-benzyl-2-(4-phenyl-1H-imidazol-2-yl)-2-propanamine] | 136 to 138
19 | CC(C)(C)OC(=O)NCc1nc(-c2ccc(-c3ccccc3)cc2)cn1Cc1ccccc1 [Example 140, 4-(1-benzyl-2-{[(tert-butoxycarbonyl)amino]methyl}-1H-imidazol-4-yl)-1,1′-biphenyl] | 167 to 169
20 | c1ccc(CN(Cc2ccccc2)Cc2nc(-c3ccc(-c4ccccc4)cc3)c[nH]2)cc1 [Example 144, N,N-dibenzyl(4-[1,1′-biphenyl]4-yl-1H-imidazol-2-yl)methanamine] | 70 to 74
21 | Cn1cc(-c2ccc(-c3ccccc3)cc2)nc1CNC(=O)OC(C)(C)C [Example 146, 4-(2-{[(tert-butoxycarbonyl)amino]methyl}-1-methyl-1H-imidazol-4-yl)-1,1′-biphenyl] | 208 to 210

Row | Compound | melting point [°C]
22 | CC(C)(C)OC(=O)N[C@@H](Cc1c[nH]c2ccccc12)c1nc(-c2ccccc2)c(-c2ccccc2)[nH]1 [Example 147, tert-butyl (1S)-1-(4,5-diphenyl-1H-imidazol-2-yl)-2-(1H-indol-3-yl)ethylcarbamate] | 142 to 143
23 | Cn1cc(-c2ccccc2)nc1[C@@H](Cc1c[nH]c2ccccc12)NC(=O)OC(C)(C)C [Example 148, tert-butyl (1R)-2-(1H-indol-3-yl)-1-(1-methyl-4-phenyl-1H-imidazol-2-yl)ethylcarbamate] | 96 to 100
24 | CN(Cc1nc(-c2ccc(-c3ccccc3)cc2)c[nH]1)C(=O)OC(C)(C)C [Example 149, 4-(2-{[(tert-butoxycarbonyl)(methyl)amino]methyl}-1H-imidazol-4-yl)-1,1′-biphenyl] | 72 to 74
25 | CC(C)(C)OC(=O)N[C@H](CC1CCCCC1)c1nc(-c2ccc(-c3ccccc3)cc2)c[nH]1 [Example 150, 4-(2-{(1R)-1-[(tert-butoxycarbonyl)amino]-2-cyclohexylethyl}-1H-imidazol-4-yl)-1,1′-biphenyl] | 112 to 114
26 | CC(C)(C)OC(=O)NCCc1nc(-c2ccc(-c3ccccc3)cc2)c[nH]1 [Example 152, 4-(2-{2-[(tert-butoxycarbonyl)amino]ethyl}-1H-imidazol-4-yl)-1,1′-biphenyl] | 140 to 142
27 | Cc1[nH]c(CN(C)C(=O)OC(C)(C)C)nc1-c1ccccc1 [Example 153, tert-butyl methyl[(5-methyl-4-phenyl-1H-imidazol-2-yl)methyl]carbamate] | 70 to 72
28 | CN(Cc1nc(-c2ccccc2)c(-c2ccccc2)[nH]1)C(=O)OC(C)(C)C [Example 156, tert-butyl (4,5-diphenyl-1H-imidazol-2-yl)methyl(methyl)carbamate] | 170 to 172
29 | CC(C)(C)OC(=O)NCc1nc(-c2ccccc2)c(-c2ccccc2)[nH]1 [Example 157, tert-butyl (4,5-diphenyl-1H-imidazol-2-yl)methylcarbamate] | 144 to 146
30 | c1ccc(CNCc2nc(-c3ccccc3)c(-c3ccccc3)[nH]2)cc1 [Example 163, N-benzyl(4,5-diphenyl-1H-imidazol-2-yl)methanamine] | 160 to 162
31 | c1ccc(CNCCc2nc(-c3ccc(-c4ccccc4)cc3)c[nH]2)cc1 [Example 164, N-benzyl-2-(4-[1,1′-biphenyl]-4-yl-1H-imidazol-2-yl)ethanamine] | 174 to 176
32 | CC(C)(C)OC(=O)N(Cc1ccccc1)Cc1nc(-c2ccc(-c3ccccc3)cc2)c[nH]1 [Example 165, 4-(2-{[benzyl(tert-butoxycarbonyl)amino]methyl}-1H-imidazol-4-yl)-1,1′-biphenyl] | 130 to 132
33 | CC(C)(C)OC(=O)N[C@H](CCc1ccccc1)c1nc(-c2ccc(-c3ccccc3)cc2)c[nH]1 [Example 167, 4-(2-{(1R)-1-[(tert-butoxycarbonyl)amino]-3-phenylpropyl}-1H-imidazol-4-yl)-1,1′-biphenyl] | 154 to 156
34 | c1ccc(CN[C@H](CC2CCCCC2)c2nc(-c3ccc(-c4ccccc4)cc3)c[nH]2)cc1 [Example 169, (1R)-N-benzyl-1-(4-[1,1′-biphenyl]-4-yl-1H-imidazol-2-yl)-2-cyclohexylethanamine] | 233 to 238
35 | c1ccc(CC[C@@H](NCc2ccccc2)c2nc(-c3ccc(-c4ccccc4)cc3)c[nH]2)cc1 [Example 170, (1R)-N-benzyl-1-(4-[1,1′-biphenyl]-4-yl-1H-imidazol-2-yl)-3-phenyl-1-propanamine] | 210 to 213
36 | CC(C)(C)OC(=O)NCCCc1nc(-c2ccc(-c3ccccc3)cc2)c[nH]1 [Example 171, 4-(2-{3-[(tert-butoxycarbonyl)amino]propyl}-1H-imidazol-4-yl)-1,1′-biphenyl] | 145 to 146
37 | CC(C)(C)NC(=S)NCCc1nc(-c2ccc(-c3ccccc3)cc2)c[nH]1 [Example 172, 4-[2-(2-{[(tert-butylamino)carbothioyl]amino}ethyl)-1H-imidazol-4-yl]-1,1′-biphenyl] | 98 to 99
38 | CCCCCCNCCc1nc(-c2ccc(-c3ccccc3)cc2)c[nH]1 [Example 176, N-[2-(4-[1,1′-biphenyl]-4-yl-1H-imidazol-2-yl)ethyl]-1-hexanamine] | 152 to 154
39 | CC(C)(C)NC(=O)NCCc1nc(-c2ccc(-c3ccccc3)cc2)c[nH]1 [Example 177, 4-[2-(2-{[(tert-butylamino)carbonyl]amino}ethyl)-1H-imidazol-4-yl]-1,1′-biphenyl] | 195 to 196
40 | c1ccc(CNCCCc2nc(-c3ccc(-c4ccccc4)cc3)c[nH]2)cc1 [Example 178, N-benzyl-3-(4-[1,1′-biphenyl]-4-yl-1H-imidazol-2-yl)-1-propanamine] | 254 to 256
41 | CC[C@H](NC(=O)OC(C)(C)C)c1nc(-c2ccc(-c3ccccc3)cc2)c[nH]1 [Example 194, 4-(2-{(1S)-1-[(tert-butoxycarbonyl)amino]propyl}-1H-imidazol-4-yl)-1,1′-biphenyl] | 138 to 140
42 | CC[C@H](NC(=O)OC(C)(C)C)c1nc(-c2ccccc2)c(-c2ccccc2)[nH]1 [Example 197, tert-butyl (1S)-1-(4,5-diphenyl-1H-imidazol-2-yl)propylcarbamate] | 136 to 138
